1 compound from patent publication US20140227173A1, “CANCER TREATMENT WITH GAMMA-SECRETASE INHIBITORS” (The Johns Hopkins University, priority 2006, published 2014) can be followed below.

One experiment relates to Capan-1. Briefly: Colony formation in soft agar (clonogenicity). It counts as cell-based, human. An excerpt:
Specificity of the RNA interference is confirmed by downregulation of Notch1 transcript levels with the specific siRA, but not with the scrambled controls. […] Bar graphs represent colony counts at two weeks, with mean and standard deviations calculated from triplicate experiments.
Bar graphs represent colony counts at two weeks, with mean and standard deviations calculated from triplicate experiments.
(Top) Experimental scheme illustrating pre-treatment of pancreatic cancer cell lines with GSI-18, prior to plating for soft agar assays and subcutaneous injection in athymic mice. Treatment for 24 hours with GSI-18 or vehicle is followed by recovery in full serum for a further 24 hours minus the drug. Equal numbers of viable cells from the control and treated groups are then plated for colony assays in soft agar, or injected in nude mice. Of note, during the in vitro or in vivo assays, no further drug is administered. […] The dosage required for significant inhibition of clonogenicity varies between 2 μM (Capan-1) to 5 μM (E3LZ10.7). Bar graphs represent colony counts at two weeks, with mean and standard deviations calculated from triplicate experiments. (Left) Pre-treatment with GSI-18 inhibits tumorigenicity of Panc-1 pancreatic cancer cell line in athymic mice. […] Error bars represent standard deviation of five mice per arm.

A further experiment relates to Akt. Briefly: Akt phosphorylation and Caspase3 cleavage in GBM neurosphere cells. The format is cell-based. On the procedure:
(A) Increase of cleaved Caspase 3 and loss of Akt phosphorylation is induced by 0.4 uMor higher levels of GSI-18, while overall levels of Akt and GAPDH are unchanged in DAOY medulloblastoma cells. (B) Cell death in 2 uM GSI-18 is reduced in a representative subclone of DAOY expressing activated Akt as compare to vector transfected cells. (C) Loss of Akt phosphorylation and activation of Caspase3 cleavage is induced by 2 μM or higher levels of GSI-18, while overall levels of Akt and GAPDH are unchanged in GBM neurosphere cells.
It has been shown that the Notch signaling pathway regulates normal stem cells in the Central Neural System (CNS), and that GBMs contain cancer stem cells (CSCs) with higher Notch activity (Cancer Research, 64:7011-21, 2004; Cancer Cell, 9:391-403, 2006). However, it has not been known if Notch pathway blockade could target CSCs in GBM. […] In the present study, we used GBM neurospheres to examine the effects of Notch pathway blockade in GBM. […] Furthermore, overexpression of an active form of Notch2 (NICD2) increases tumor growth in vitro.

Experiment [1] relates to DAOY. In words: Flow cytometric analysis of the cell cycle. The format is cell-based. Conditions: 2 μM. An excerpt:
(§1) Double immunolabeling, using antibodies specific for nestin and for Ki67, a marker of proliferating cells, was used to determine effects of Notch pathway blockade on the cell cycle. […] While adult neural stem cells are generally thought to be relatively quiescent, during embryonic growth of the brain the stem cell compartment is highly proliferative. The high rate of division observed in stem-like MB cells may reflect their similarity to those in fetal germinal epithelium.
(§2) Flow cytometric analysis of S-phase fraction and cell cycle kinetics was performed using a FACSCalibur (Becton Dickinson, San Jose, Calif.) with CELL Quest, version 3.3 software (15). CD133 studies were performed using the same instrument, with antibodies from Miltenyi (Miltenyi Biotec, Auburn, Calif.) according to the manufacturer's instructions. Cells expressing levels of CD133 higher than those seen in IgG controls were considered positive. For analyses of side population, cells (10^6/ml) were incubated with Hoechst 33342 (3 μM, Molecular Probes, Carlsbad, Calif.) for 90 minutes at 37° C. in DMEM containing 2% FBS. Prior to analysis, cells were washed and resuspended in 2 μg/ml PI (Sigma, St. Louis, Mo.). Cells were analyzed on a LSR flow cytometer equipped with 424/44 nm band pass and 670 nm long pass optical filters (Omega Optical, Brattleboro, Vt.). […]

Experiment [2] relates to PFSK. In words: Flow cytometric analysis of the cell cycle. It counts as cell-based. Conditions: 2 μM.
From the text: as §1, §2
(A flow cytometer gives signals particle by particle.)

Experiment [3] deals with DAOY. In words: Flow cytometric analysis of CD133-positive fraction. The format is cell-based. Conditions: 2 μM, 48 hours. From the text: (§3) The effects of Notch on the CD133-positive CSC subpopulation were first examined. Singh and colleagues have shown that only CD133-positive MB and glioblastoma cells are able to form multipotent neurosphere clones or tumor xenografts (6, 12). Another type of brain tumor, ependymoma, also appears to contain a small fraction of CD133-positive cells uniquely capable of initiating tumor xenografts (9). […] The D283Med and D425Med lines, which grow in suspension, contained higher percentages of CD133 positive cells. Sorting of DAOY cultures using magnetic beads coated with antibodies specific for CD133 generated an enriched population in which 30% of cells expressed the stem cell marker, and a negative population in which less than 1% of cells were CD133-positive. […] Thus Notch signaling appears to be especially active in CSC, raising the possibility that inhibition of this pathway may target the CSC population.
(§4) The DAOY, PFSK, D283 and D425 Med cell lines were obtained from the American Type Culture Collection. The low-passage MB line MB2 was derived from a tumor resected at Johns Hopkins Hospital. For treatment studies, cell were plated and allowed to grow overnight in MEM (Invitrogen, Carlsbad, Calif.) containing 10% FBS, then media was replaced the next morning with low serum (0.5% FBS) MEM containing GSI dissolved in DMSO. RNA and protein extractions, and all cell-based assays, were performed 48 hours after drug application unless otherwise noted. All experiments with error bars were performed in triplicate and shown as mean values with standard error unless otherwise noted. Cell mass was measured using CellTITER assays according to the manufacturer's instructions (Promega, Madison, Wis.). Cell number and viability were assessed using the Guava PCA and Viacount reagent according to instructions (Guava Technologies, Heyward, Calif.). Soft agar assays were performed as previously described (15) and scored either manually after 4 weeks or using as automated reader after 6 weeks. The constitutively active Akt stable cell line was made by transfecting DAOY cells with myristolated Akt (pCB6-IMy-Akt-HA) or control (pCB6+) plasmids (kind gifts from Susan J. Baker) and selecting and maintaining clones in 0.8 mg/ml G418. Soft agar assays were performed as previously described, with colonies counted using an automated reader (15).
(§5) Flow cytometric analysis of S-phase fraction and cell cycle kinetics was performed using a FACSCalibur (Becton Dickinson, San Jose, Calif.) with CELL Quest, version 3.3 software (15). CD133 studies were performed using the same instrument, with antibodies from Miltenyi (Miltenyi Biotec, Auburn, Calif.) according to the manufacturer's instructions. Cells expressing levels of CD133 higher than those seen in IgG controls were considered positive. For analyses of side population, cells (10^6/ml) were incubated with Hoechst 33342 (3 μM, Molecular Probes, Carlsbad, Calif.) for 90 minutes at 37° C. in DMEM containing 2% FBS. Prior to analysis, cells were washed and resuspended in 2 μg/ml PI (Sigma, St. Louis, Mo.). Cells were analyzed on a LSR flow cytometer equipped with 424/44 nm band pass and 670 nm long pass optical filters (Omega Optical, Brattleboro, Vt.). To ensure proper identification of SP cells, cells were incubated as above with the addition of 50 μM verapamil (Sigma).

In experiment [4] the test system is PFSK. The experiment is described as above. It counts as cell-based. The following applies: 2 μM, p<0.01.
From the text: as §3, §4, §5

For the next experiment, the system named is D283. The description is as above. The following applies: 2 μM. It counts as cell-based.
From the text: as §3, §4, §5

In another experiment the test system is D425. The experiment is described as above. It counts as cell-based. The following applies: 2 μM.
From the text: as §3, §4, §5

In the case of `O=S(=O)(NC1C2CCC1Cc1ccccc1C2)c1cccs1` (stereo not drawn) [GSI-18, [11-endo]-N-(5,6,7,8,9,10-hexahydro-6,9-methanobenzo[α][8]annulen-11-yl)-thiophene-2-sulfonamide], in the experiment on Capan-1 (24 hours pre-treatment, 24 hours recovery minus drug, colony counts at two weeks), the “colony formation following pre-treatment” value was “Significant inhibition of colony formation”. The “clonogenicity, colony formation in soft agar” value in the experiment on Capan-1 (colony counts at two weeks) is given as “significant inhibition of clonogencity”. Moreover, the “dosage required for significant inhibition of clonogenicity” value with Capan-1 (pre-treatment) turned out to be 2 µM. The “levels inducing loss of Akt phosphorylation and activation of Caspase3 cleavage” value with Akt (GBM neurosphere cells) is at least 2 µM. Besides, the “expression of cleaved caspase 3 and phosphorylated Akt” value in the experiment on Akt (GBM neurosphere lines) was “Increased expression of cleaved caspase 3 and reduced expression of phosphorelated Akt”. Also, the “G1/G0, S phase and G2/M cell fractions” value in the experiment on DAOY [1] was “increased the G1/G0 cell fraction and decreased the S phase and G2/M fractions”; in the experiment with PFSK [2] it was “increased the G1/G0 cell fraction and decreased the S phase and G2/M fractions”. Also, the “fold reduction of CD133-positive stem-like fraction” value with DAOY [3] (p<0.01) worked out at 3 fold. In the experiment on DAOY [3] (untreated 9.9%), the “CD133-positive stem-like fraction after treatment” value came to 3.3%. In the experiment on PFSK [4], the “fold reduction in the percentage of CD133-positive cells” value is reported as 4.8 fold. The “decrease in the percentage of CD133-positive cells” value with D283 and in the experiment on D425 was “less pronounced” each time.
